Measured values as given in ChEMBL document CHEMBL4765341, “A series of octahydroquinazoline-5-ones as novel inhibitors against dengue virus” (Eur J Med Chem, 2020).
Calls of active or inactive are those of the source. No cut-off for these calls is given here.

Legend:
dengue virus type 2 [1] = assay: Antiviral activity against DENV-2 infected in BHK-21 cells assessed as cytopathic effect after 96 hrs by LDH assay; format: functional, organism-based; conditions: for EC50: BHK-21, 96 h
[2] = Selectivity index, ratio of CC50 for golden hamster BHK-21 cells EC50 for DENV-2 infected in BHK-21 cells; format: toxicity, cell-based; conditions: read-out: Selectivity Index
[3] = Cytotoxicity against golden hamster BHK-21 cells incubated for 48 hrs by MTT assay; format: cell-based, Mesocricetus auratus
BHK-21 [4] = assay: Binding affinity to RdRp domain of NS5 in DENV-2 infected in BHK-21 cells by isothermal titration calorimetry assay; conditions: dengue virus type 2
BHK-21 [5] = assay: Reduction in viral structure E protein expression in DENV-2 infected golden hamster BHK-21 cells at 2.5 uM by Western blot analysis relative to control; format: functional, cell-based; conditions: dengue virus type 2
dengue virus type 2 [6] = assay: Antiviral activity against second round DENV-2 infected in BHK-21 cells assessed as reduction in new virion infectivity measured after 24 hrs by focus-forming assay; format: functional, organism-based
BHK-21 [7] = assay: Binding affinity to MTase domain of NS5 in DENV-2 infected in BHK-21 cells by isothermal titration calorimetry assay; conditions: dengue virus type 2
[8] = Reduction in viral structure E protein expression in DENV-2 infected golden hamster BHK-21 cells at 10 uM by Western blot analysis relative to control; format: functional, dengue virus type 2; conditions: Dengue virus
BHK-21 [9] = assay: Reduction in viral structure E protein expression in second round DENV-2 infected golden hamster BHK-21 cells assessed in new virions at 0.5 to 10 uM measured after 24 hrs by Western blot analysis relative to control; format: functional, cell-based; conditions: dengue virus type 2, dose 0.5-10 µM
BHK-21 [10] = assay: Reduction in viral structure E protein expression in second round DENV-2 infected golden hamster BHK-21 cells assessed in new virions at 0.5 to 10 uM measured after 24 hrs by confocal microscopy relative to control; format: functional, cell-based; conditions: dengue virus type 2, dose 0.5-10 µM

| SMILES | EC50 (dengue virus type 2 [1]) | other results |
| --- | --- | --- |
| CC1(C)CC(=O)C2=C(C1)N(c1ccccc1)C(c1ccc(O)cc1)N(c1ccccc1)C2 (centres undefined) | > 20 µM | – |
| CC1(C)CC(=O)C2=C(C1)N(c1ccccc1)C(c1cccc(C(F)(F)F)c1)N(c1ccccc1)C2 (centres undefined) | 1.32 µM | selectivity ratio [2]: 13.5; CC50 at 48 h [3]: 17.9 µM |
| CC1(C)CC(=O)C2=C(C1)N(c1ccccc1)C(c1ccc(Br)cc1)N(c1ccc(Oc3ccccc3)cc1)C2 (centres undefined) | 1.85 µM | selectivity ratio [2]: 5.89; CC50 at 48 h [3]: 10.9 µM |
| CC1(C)CC(=O)C2=C(C1)N(c1ccccc1)C(c1ccc(Br)cc1)N(c1cccc(Cl)c1)C2 (centres undefined) | 4.73 µM | – |
| CC1(C)CC(=O)C2=C(C1)N(Cc1ccccc1)C(c1ccccc1)N(Cc1ccccc1)C2 (centres undefined) | > 20 µM | – |
| Cc1ccc(C2N(c3ccccc3)CC3=C(CC(C)(C)CC3=O)N2c2ccccc2)s1 (centres undefined) | 3.24 µM | – |
| CC1(C)CC(=O)C2=C(C1)N(c1ccc3ccccc3c1)C(c1ccc(Br)cc1)N(c1ccc(Cl)cc1)C2 (centres undefined) | 13.5 µM | – |
| CC1(C)CC(=O)C2=C(C1)N(c1ccccc1)C(c1ccc([N+](=O)[O-])cc1)N(c1ccccc1)C2 (centres undefined) | 3.75 µM | – |
| CC1(C)CC(=O)C2=C(C1)N(c1ccccc1)C(c1ccc(OC(C)(C)C)cc1)N(c1ccccc1)C2 (centres undefined) | 2.63 µM | – |
| COc1ccc(N2C3=C(CN(c4ccc(Cl)cc4)C2c2ccc(Br)cc2)C(=O)CC(C)(C)C3)cc1 (centres undefined) | 2.6 µM | selectivity ratio [2]: > 7.69; CC50 at 48 h [3]: > 20 µM |
| CC1(C)CC(=O)C2=C(C1)N(c1ccccc1)C(c1ccc(OC(F)(F)F)cc1)N(c1ccccc1)C2 (centres undefined) | 2.52 µM | – |
| CC1(C)CC(=O)C2=C(C1)N(c1ccc(F)cc1)C(c1ccc(Br)cc1)N(c1ccc(Cl)cc1)C2 (centres undefined) | 2.64 µM | selectivity ratio [2]: > 7.58; CC50 at 48 h [3]: > 20 µM |
| CC1(C)CC(=O)C2=C(C1)N(c1ccccc1)C(c1ccc(Br)cc1)N(c1ccc(OC(F)(F)F)cc1)C2 (centres undefined) | 1.84 µM | – |
| CC1(C)CC(=O)C2=C(C1)N(c1ccccc1)C(c1ccc(C(C)(C)C)cc1)N(c1ccccc1)C2 (centres undefined) | 8.61 µM | – |
| CC1(C)CC(=O)C2=C(C1)N(c1ccccc1)C(c1cccc(Br)c1)N(c1ccccc1)C2 (centres undefined) | 1.31 µM | Activity (BHK-21 [4]): inactive; inhibition (BHK-21 [5]): Active; Activity (dengue virus type 2 [6]): Active; Activity (BHK-21 [7]): inactive; inhibition at 10 µM [8]: 100%; selectivity ratio [2]: > 15.3; inhibition (BHK-21 [9]): Active; Activity (dengue virus type 2 [1]): Dose-dependent effect; inhibition (BHK-21 [10]): Active; CC50 at 48 h [3]: > 20 µM |
| CC1(C)CC(=O)C2=C(C1)N(c1ccccc1)C(c1ccc3ccccc3c1)N(c1ccccc1)C2 (centres undefined) | > 20 µM | – |
| COc1cc(C2N(c3ccccc3)CC3=C(CC(C)(C)CC3=O)N2c2ccccc2)cc(OC)c1O (centres undefined) | > 20 µM | – |
| CC1(C)CC(=O)C2=C(C1)N(c1ccccc1)C(c1cccc3ccccc13)N(c1ccccc1)C2 (centres undefined) | 3.87 µM | – |
| CC1(C)CC(=O)C2=C(C1)N(c1ccc(Cl)cc1)C(c1ccc(Br)cc1)N(c1ccc(Cl)cc1)C2 (centres undefined) | 4.33 µM | – |
| CC(C)c1ccc(C2N(c3ccccc3)CC3=C(CC(C)(C)CC3=O)N2c2ccccc2)cc1 (centres undefined) | 3.6 µM | – |
| CC(C)c1ccc(N2CC3=C(CC(C)(C)CC3=O)N(c3ccccc3)C2c2ccc(Br)cc2)cc1 (centres undefined) | 5.55 µM | – |
| CC1(C)CC(=O)C2=C(C1)N(c1ccc(Oc3ccccc3)cc1)C(c1ccc(Br)cc1)N(c1ccc(Cl)cc1)C2 (centres undefined) | > 20 µM | – |
| CC(C)C1N(c2ccccc2)CC2=C(CC(C)(C)CC2=O)N1c1ccccc1 (centres undefined) | > 20 µM | – |
| CC1(C)CC(=O)C2=C(C1)N(c1ccc(Cc3ccccc3)cc1)C(c1ccc(Br)cc1)N(c1ccc(Cl)cc1)C2 (centres undefined) | > 20 µM | – |
| CC1(C)CC(=O)C2=C(C1)N(c1ccccc1)C(c1cccc([N+](=O)[O-])c1)N(c1ccccc1)C2 (centres undefined) | 2.83 µM | – |

| SMILES | EC50 (dengue virus type 2 [1]) | other results |
| --- | --- | --- |
| CC1(C)CC(=O)C2=C(C1)N(c1ccccc1)C(c1ccc(Br)cc1)N(c1ccc3ccccc3c1)C2 (centres undefined) | 1.77 µM | – |
| CC1(C)CC(=O)C2=C(C1)N(c1ccc(-c3ccccc3)cc1)C(c1ccc(Br)cc1)N(c1ccc(Cl)cc1)C2 (centres undefined) | > 20 µM | – |
| CC1(C)CC(=O)C2=C(C1)N(c1ccccc1)C(c1ccc(Br)cc1)N(c1ccc(Br)cc1)C2 (centres undefined) | 2.33 µM | – |
| CC1(C)CC(=O)C2=C(C1)N(c1ccccc1)C(c1ccccc1Br)N(c1ccccc1)C2 (centres undefined) | 3.88 µM | – |
| CC1(C)CC(=O)C2=C(C1)N(c1ccccc1)C(c1ccc(Br)cc1)N(c1ccc(C(C)(C)C)cc1)C2 (centres undefined) | 5.33 µM | – |
| CC1(C)CC(=O)C2=C(C1)N(c1ccccc1)C(c1ccc(Br)cc1)N(c1ccc(Cl)cc1)C2 (centres undefined) | 1.38 µM | selectivity ratio [2]: 9.18; CC50 at 48 h [3]: 12.7 µM |
| CCCCC1N(c2ccccc2)CC2=C(CC(C)(C)CC2=O)N1c1ccccc1 (centres undefined) | > 20 µM | – |
| COc1ccc(N2CC3=C(CC(C)(C)CC3=O)N(c3ccccc3)C2c2ccc(Br)cc2)cc1 (centres undefined) | 5.42 µM | – |
| COc1ccc(C2N(c3ccccc3)CC3=C(CC(C)(C)CC3=O)N2c2ccccc2)cc1 (centres undefined) | 7.52 µM | – |
| CC1(C)CC(=O)C2=C(C1)N(c1ccccc1)C(c1ccc(Br)cc1)N(c1ccc(-c3ccccc3)cc1)C2 (centres undefined) | > 20 µM | – |
| CC1(C)CC(=O)C2=C(C1)N(c1ccccc1)C(c1ccc(C#N)cc1)N(c1ccccc1)C2 (centres undefined) | 7.45 µM | – |
| CC1(C)CC(=O)C2=C(C1)N(c1ccccc1)C(c1ccc(OCc3ccccc3)cc1)N(c1ccccc1)C2 (centres undefined) | 2.61 µM | – |
| CC1(C)CC(=O)C2=C(C1)N(c1ccccc1)C(c1ccc(-c3ccccc3)cc1)N(c1ccccc1)C2 (centres undefined) | > 20 µM | – |
| CC(C)Oc1ccc(C2N(c3ccccc3)CC3=C(CC(C)(C)CC3=O)N2c2ccccc2)cc1 (centres undefined) | 5.03 µM | – |
| CC1(C)CC(=O)C2=C(C1)N(c1ccccc1)C(c1ccc(Cl)cc1)N(c1ccccc1)C2 (centres undefined) | 5.96 µM | – |
| CC1(C)CC(=O)C2=C(C1)N(c1ccccc1)C(c1ccc(C(F)(F)F)cc1)N(c1ccccc1)C2 (centres undefined) | 3.75 µM | – |
| CC1(C)CC(=O)C2=C(C1)N(c1ccccc1)C(c1cccs1)N(c1ccccc1)C2 (centres undefined) | > 20 µM | – |
| CC1(C)CC(=O)C2=C(C1)N(c1ccccc1)C(c1ccc(Br)cc1)N(c1ccc(F)cc1)C2 (centres undefined) | 1.9 µM | selectivity ratio [2]: 5.3; CC50 at 48 h [3]: 10 µM |
| CC1(C)CC(=O)C2=C(C1)N(c1ccccc1)C(c1ccc(Br)cc1)N(c1ccccc1)C2 (centres undefined) | 2.85 µM | selectivity ratio [2]: > 7.02; CC50 at 48 h [3]: > 20 µM |
| CC1(C)CC(=O)C2=C(C1)N(c1cccc(Cl)c1)C(c1ccc(Br)cc1)N(c1ccc(Cl)cc1)C2 (centres undefined) | 5.6 µM | – |
| CC1(C)CC(=O)C2=C(C1)N(c1ccccc1)C(c1ccc(Br)cc1)N(Cc1ccccc1)C2 (centres undefined) | > 20 µM | – |
| CC1(C)CC(=O)C2=C(C1)N(c1ccccc1)C(c1ccc(Br)cc1)N(c1ccccc1Cl)C2 (centres undefined) | > 20 µM | – |
| CC1(C)CC(=O)C2=C(C1)N(c1ccccc1)C(c1ccccc1)N(c1ccccc1)C2 (centres undefined) | > 20 µM | – |
| CC1(C)CC(=O)C2=C(C1)N(c1ccccc1)C(c1ccc(Br)cc1)N(c1ccc(C(F)(F)F)cc1)C2 (centres undefined) | 4.02 µM | – |
| CC1(C)CC(=O)C2=C(C1)N(c1ccccc1)C(c1ccc(F)cc1)N(c1ccccc1)C2 (centres undefined) | > 20 µM | – |
